Assay results from patent US20240327429A1, “[1,3]Thiazolo[4,5-d]-pyrimidon-7-ones as inhibitors of NOX4” (Boehringer Ingelheim International GmbH, priority 2023, published 2024).
“And” between values parts separate entries of the source, which are not always exact repeats. Identical values can stand only once.

Legend:
[1] = target: T1, human NOX4 (hNOX4) (Homo sapiens, UniProt Q9NPH5); assay: cell-based
T1 sequence (Q9NPH5 1-578): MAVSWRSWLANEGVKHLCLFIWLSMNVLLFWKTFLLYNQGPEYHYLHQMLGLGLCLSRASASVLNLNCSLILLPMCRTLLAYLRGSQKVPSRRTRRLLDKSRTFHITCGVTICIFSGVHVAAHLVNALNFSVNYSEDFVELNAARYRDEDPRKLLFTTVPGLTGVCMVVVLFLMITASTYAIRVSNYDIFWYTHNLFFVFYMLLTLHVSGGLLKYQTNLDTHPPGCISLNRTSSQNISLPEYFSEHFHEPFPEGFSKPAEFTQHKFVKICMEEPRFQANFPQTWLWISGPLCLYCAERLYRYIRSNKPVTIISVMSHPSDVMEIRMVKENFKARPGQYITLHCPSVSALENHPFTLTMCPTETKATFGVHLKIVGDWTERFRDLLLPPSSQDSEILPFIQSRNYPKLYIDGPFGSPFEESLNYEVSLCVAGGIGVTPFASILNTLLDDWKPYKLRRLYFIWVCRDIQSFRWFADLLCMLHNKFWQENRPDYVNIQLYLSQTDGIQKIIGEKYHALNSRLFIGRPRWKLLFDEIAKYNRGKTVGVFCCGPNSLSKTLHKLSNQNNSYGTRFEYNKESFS
T1 sequence (P13498 2-195 partner limits assumed): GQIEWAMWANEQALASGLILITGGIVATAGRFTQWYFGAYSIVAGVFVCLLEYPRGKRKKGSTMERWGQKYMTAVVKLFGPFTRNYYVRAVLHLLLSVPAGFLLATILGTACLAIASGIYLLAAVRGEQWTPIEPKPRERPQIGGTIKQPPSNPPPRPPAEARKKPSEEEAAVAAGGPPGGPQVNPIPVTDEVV
Experimental: The synthetic gene phNOX4_DNA3_1_Zeo (Accession: AAF68973) is assembled from synthetic oligonucleotides and/or PCR products. The fragment is cloned into pcDNA3.1_Zeo_A011 using NheI and XhoI cloning sites. The plasmid DNA is purified from transformed bacteria and its concentration is determined by UV spectroscopy. The final construct is verified by sequencing. The plasmid is transfected via electroporation (Amaxa electroporation device) in combination with Nucleofector Kit V. Selection of NOX4 overexpressing genes is achieved using selection antibiotic Zeocin.
The inhibitory activity of the example compounds of the invention is determined using the following procedure:
Cells are cultured in the Dulbecco's Modified Eagle Medium (DMEM) media containing 4.5 g/L glucose supplemented with 10% fetal calf serum and 250 μg/ml Zeocin in an incubator at 37° C. with 5% CO2. For the assay, cells are seeded in 384 well plates.
After incubation Lumigen HyPerBlu™ is added and cells are incubated for additional 30 min at 24° C. in a humidified incubator. Next, luminescence is measured using an Envision Multimode Plate reader to determine levels of produced H2O2 in the wells.

[2] = tested on: human hepatocytes; assay: Evaluation of hepatocyte clearance (metabolic stability); assay type: in vitro ADME; conditions: % of hepatic blood flow
Experimental: The metabolic degradation of the test compound is assayed in a hepatocyte suspension. Hepatocytes (cryopreserved) are incubated in Dulbecco's modified eagle medium (supplemented with […] glucagon/500 mL, 2.5 mg insulin/500 mL and 3.75 mg/500 mL hydrocortisone) containing 5% human serum.
Following a 30 min preincubation in an incubator (37° C., 10% CO2) 5 μl of test compound solution (80 μM; from 2 mM in DMSO stock solution diluted 1:25 with medium) are added into 395 μl hepatocyte suspension (cell density in the range 0.25-5 Mio cells/mL, typically 1 Mio cells/mL; final concentration of test compound 1 μM, final DMSO concentration 0.05%).
The cells are incubated for six hours (incubator, orbital shaker) and samples (25 μl) are taken at 0, 0.5, 1, 2, 4 and 6 hours. Samples are transferred into acetonitrile and pelleted by centrifugation (5 min). The supernatant is transferred to a new 96-deepwell plate, evaporated under nitrogen and resuspended.
Decline of Parent Compound is Analyzed by HPLC-MS/MS.
CLint is Calculated as Follows:
CL_[…]=Dose/AUC=(C0/CD)/(AUD+clast/k)×1000/60. • C0: initial concentration in the incubation [μM], CD: cell density of vital cells [10^6 cells/mL], AUD: area under the data [μM×h], clast: concentration of last data point [μM], • k: slope of the regression line for parent decline [h-1].
The calculated in vitro hepatic intrinsic clearance can be scaled up to the intrinsic in vivo hepatic clearance and used to predict hepatic in vivo blood clearance (CL) by the use of a liver model (well stirred model).
CL_[…]_INVIVO[ml/min/kg]=(CL_[…][μL/min/10^6 cells]×hepatocellularity[10^6 cells/g liver]×liver factor[g/kg bodyweight])/1000
CL[ml/min/kg]=CL_[…]_INVIVO[ml/min/kg]×hepatic blood flow[ml/min/kg]/(CL_[…]_INVIVO[ml/min/kg]+hepatic blood flow[ml/min/kg])

[3] = target: T2, human NOX1 (hNOX1) (Homo sapiens, UniProt Q9Y5S8); assay: NOX1 inhibition assay (L-012), HEK293 cells stably overexpressing human NOX1; assay type: cell-based; conditions: HEK293-hNOX1, PMA stimulated
T2 construct: pLV-CMV-hNOX1-puro (NM_007052.5); host or cells: HEK293 (CLS GmbH), lentiviral transduction
T2 sequence (Q9Y5S8 1-564): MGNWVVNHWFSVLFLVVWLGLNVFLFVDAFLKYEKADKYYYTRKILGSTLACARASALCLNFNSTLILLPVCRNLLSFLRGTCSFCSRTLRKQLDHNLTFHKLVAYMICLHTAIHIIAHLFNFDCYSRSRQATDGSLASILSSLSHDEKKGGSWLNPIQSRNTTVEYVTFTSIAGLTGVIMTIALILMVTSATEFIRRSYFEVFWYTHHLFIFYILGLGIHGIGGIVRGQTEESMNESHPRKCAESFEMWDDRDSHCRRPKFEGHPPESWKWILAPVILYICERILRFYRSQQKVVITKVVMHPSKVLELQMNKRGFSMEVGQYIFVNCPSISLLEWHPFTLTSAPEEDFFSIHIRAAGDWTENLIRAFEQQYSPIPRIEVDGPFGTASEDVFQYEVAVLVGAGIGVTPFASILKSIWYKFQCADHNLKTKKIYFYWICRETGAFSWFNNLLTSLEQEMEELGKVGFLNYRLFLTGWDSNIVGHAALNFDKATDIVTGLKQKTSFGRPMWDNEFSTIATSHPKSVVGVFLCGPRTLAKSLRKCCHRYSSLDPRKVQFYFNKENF
T2 sequence (P13498 2-195 partner limits assumed): T1 sequence (P13498 2-195 partner limits assumed)
Excerpt: Plasmids are Purchased from Vectorbuilder. • for HEK-hNOX1 all necessary subunits are cloned accordingly: • pLV-CMV-hNOX1-puro (NM_007052.5) • pLV-CMV-hNOXO1-blas (NM_172168.3) • pLV-CMV-hp22phox-hygro (NM_000101.4) • pLV-CMV-hNOXA1-neo (NM_006647.2) • for HEK-hNOX3 • pLV-CMV-hNOX3-puro (NM_015718.3)
3rd generation lentiviral particles are produced in HEK293 suspension cells by transient transfection of three helper and expression plasmids. Crucial lentivirus supernatants are harvested, clarified by filtration and concentrated by precipitation. Lentivirus titers are determined in transducing units in (TU/mL) by transduction of HT1080 cells and colony forming assay. Parental HEK293 cells, purchased from CLS GmbH, are transduced with replication-incompetent 3rd generation lentiviral particles (MOI 2) and expanded for at least 2 weeks before cryopreservation of tested lots. During cultivation, medium is changed three times per week and cells are sub-cultured at least once per week. Selection antibiotics are added according to the plasmids (1 μg/ml puromycin, 1.5 μg/ml blasticidin, 200 μg/ml G418 and 100 μg/ml hygromycin).
Evaluation of the NOX4 inhibitors on NOX1 activity is assessed in HEK293 cells stably overexpressing human NOX1 (hNOX1).
Lastly, 8-amino-5-chloro-2,3-dihydro-7-phenyl-pyrido[3,4-d]pyridazine-1,4-dione sodium salt (L-012, CAS 143556-24-5) is added at 400 μM to all wells, and cells are incubated in an incubator for an additional 3 h. Afterwards luminescence is measured with a SpectraMax Paradigm Microplate Reader.

[4] = target: T3, NOX4 (Homo sapiens, UniProt Q9NPH5); conditions: modified HEK cells, Amplex Red; read-out: NOX4 IC50 [μM] as disclosed in WO2016207785; cited from earlier work
T3 construct: host or cells: modified HEK cells
T3 sequence (Q9NPH5 1-578): T1 sequence (Q9NPH5 1-578)
T3 sequence (P13498 2-195 partner limits assumed): T1 sequence (P13498 2-195 partner limits assumed)

IC50 [1]	clearance in human hepatocytes [2] [% QH]	IC50 [3] [nM]	Structure (SMILES)	IC50 [4] [µM]
1650 nM	–	–	O=c1c2scnc2nc(SCc2c(F)cc(F)cc2F)n1-c1cncc(F)c1 [reference compound]	–
8120 nM	–	–	Cc1cc(F)ccc1CSc1nc2ncsc2c(=O)n1-c1cccnc1 [reference compound]	–
5450 nM	–	–	O=c1c2scnc2nc(SCc2ccc(Cl)cc2)n1-c1cccnc1 [reference compound]	–
–	29	–	O=C(Nc1ccc2oc(N3CCC34COC4)nc2c1)c1ccc2c(c1)CCO2 [Example 15 of WO2016207785]	–
–	46	–	O=C(Nc1ccc2c(c1)CCO2)c1ccc2oc(N3CCC34COC4)nc2c1 [Example 80]	–
560 nM and 555 nM	52	> 100000	O=c1c2scnc2nc(SCc2cccc(F)c2)n1-c1ccc(O)cc1 [Example 1, 5-((3-Fluorobenzyl)thio)-6-(4-hydroxyphenyl)thiazolo[4,5-d]pyrimidin-7(6H)-one]	0.34
